Test results: ChEMBL document CHEMBL4033635, “Structure, synthesis and biological properties of the pentacyclic guanidinium alkaloids” (Bioorg Med Chem, 2017)
≈ marks a conversion by molar mass, not a printed value.

How the values were obtained:
[1] = Displacement of [125I]-alphaBgt from Torpedo californica muscle-type nAChR preincubated for 2 to 3 hrs followed by [125I]-alphaBgt addition addition measured after 5 mins; set-up: species or system Tetronarce californica
[2] = target: Neuronal acetylcholine receptor subunit alpha-7 (Homo sapiens, UniProt P36544); assay: Displacemet of [125I]-alphaBgt from human alpha7 nAChR expressed in rat GH4C1 cells preincubated for 2 to 3 hrs followed by [125I]-alphaBgt addition measured after 5 mins; format: cell-based
[3] = tested on: Human immunodeficiency virus 1; assay: Antiviral activity against HIV1 LAV in human PBM cells; format: functional, cell-based; details: Human immunodeficiency virus 1, LAV
Staphylococcus aureus [4] = assay: Antibacterial activity against Staphylococcus aureus; format: functional
Staphylococcus aureus [5] = assay: Antibacterial activity against methicilin-resistant Staphylococcus aureus; format: functional
Plasmodium falciparum [6] = assay: Antiprotozoal activity against chloroquine-sensitive Plasmodium falciparum D6 after 48 hrs by lactate dehydrogenase assay; format: functional; details: D6, 48 h
Plasmodium falciparum [7] = assay: Antiprotozoal activity against chloroquine-resistant Plasmodium falciparum W2 after 48 hrs by lactate dehydrogenase assay; format: functional; details: W2, 48 h
[8] = Inhibition of pig cerebral cortex Na+/K+-ATPase; set-up: species or system Sus scrofa
[9] = Inhibition of rabbit sercoplasmic reticulum Ca+-ATPase; set-up: species or system Oryctolagus cuniculus
[10] = tested on: Human immunodeficiency virus 1; assay: Inhibition of HIV-1 reverse transcriptase at 10 uM
K562 [11] = assay: Growth inhibition of human K562 cells; format: functional
HeLa = assay: Antiproliferative activity against human HeLa cells; format: functional, cell-based
[12] = target: Eukaryotic translation initiation factor 5A-1 (Homo sapiens) (UniProt P63241); assay: Inhibition of eIF5A-1 (unknown origin) at 1 uM
K562 [13] = assay: Cytotoxicity against human K562 cells; format: functional, cell-based
[14] = Inhibition of Ca2+-ATPase (unknown origin); set-up: species or system Homo sapiens

Chain of Neuronal acetylcholine receptor subunit alpha-7 (P36544 whole entry): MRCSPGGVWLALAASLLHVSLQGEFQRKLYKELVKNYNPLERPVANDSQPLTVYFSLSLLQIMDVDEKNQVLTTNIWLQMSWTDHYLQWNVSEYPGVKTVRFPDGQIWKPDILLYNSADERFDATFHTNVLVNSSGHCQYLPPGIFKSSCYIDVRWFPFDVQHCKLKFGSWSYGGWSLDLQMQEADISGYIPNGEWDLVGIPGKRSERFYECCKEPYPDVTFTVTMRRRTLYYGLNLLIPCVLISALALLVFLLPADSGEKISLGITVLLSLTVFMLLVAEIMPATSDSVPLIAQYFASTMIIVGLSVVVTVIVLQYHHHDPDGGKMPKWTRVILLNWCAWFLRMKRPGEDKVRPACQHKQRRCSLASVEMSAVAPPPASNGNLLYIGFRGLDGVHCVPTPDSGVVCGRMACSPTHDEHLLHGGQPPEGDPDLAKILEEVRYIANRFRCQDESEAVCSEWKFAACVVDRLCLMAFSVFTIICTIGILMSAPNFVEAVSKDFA
Chain of Eukaryotic translation initiation factor 5A-1 (Homo sapiens) (P63241 whole entry): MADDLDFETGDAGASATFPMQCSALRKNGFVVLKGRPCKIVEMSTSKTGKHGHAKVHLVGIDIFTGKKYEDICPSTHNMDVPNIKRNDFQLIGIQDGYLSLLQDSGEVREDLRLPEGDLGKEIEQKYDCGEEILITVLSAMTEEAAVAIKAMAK

What does the source list for `CCC[C@@H]1CCC[C@@]2(N=C3N[C@]4(CCC=C[C@H](CC)O4)C[C@@H]4CC[C@H]([C@@H]2C(=O)OCCCCCCCCCCCCCCCC(=O)N(CCCN)CCCCN)N34)O1`?
Ki [1]: 8 to 310 µM; Ki [2]: 8 to 310 µM

Which EC50 [3] does the source give for `CC[C@H]1C=CCC[C@@]2(C[C@@H]3CC[C@@H]4[C@H](C(=O)OCCCCCCCCCCCCCCCC(=O)N(CCCN)CCCN)[C@]5(CCC[C@@H](C)O5)NC(=N2)N34)O1` here?
The EC50 was 0.011 µM.

And the EC90 [3]?
The EC90 was 0.046 µM.

And the MIC (Staphylococcus aureus [4])?
Its MIC is 0.63 µg/mL (≈ 0.817 µM).

And the MIC (Staphylococcus aureus [5])?
Its MIC is 0.63 µg/mL (≈ 0.817 µM).

And the IC50 (Plasmodium falciparum [6])?
Its IC50 is 0.11 to 0.12 µg/mL (≈ 0.143 to 0.156 µM).

What about the IC50 (Plasmodium falciparum [7]) of the same molecule?
Its IC50 is 0.11 to 0.12 µg/mL (≈ 0.143 to 0.156 µM).

What about the IC50 [8] of the same molecule?
The IC50 was 2 µM.

And the IC50 [9]?
The IC50 was 10 µM.

And the inhibition [10]?
The inhibition was 55 to 64%.

For `CC[C@H]1C=CCC[C@@]2(C[C@@H]3CC[C@@H]4C(C(=O)OC/C=C/c5ccccc5)[C@]5(CCC[C@@H](C)O5)NC(=[N+]34)N2)O1` (stereo partly drawn), which GI50 (K562 [11]) is on record?
Its GI50 is less than 1 µM.

For `CC/C=C/[C@H]1CC[C@@]2(C[C@@H]3CC[C@@H]4[C@H](C(=O)OCCCCCCCCCCCCCCC(O)C(=O)NCCCN)[C@]5(CCC[C@@H](C)O5)N=C(N2)N34)O1` (stereo partly drawn), which Ki [1] is on record?
The Ki was 8 to 310 µM.

And the Ki [2]?
Its Ki is 8 to 310 µM.

What about the IC50 (HeLa) of the same molecule?
The IC50 was 0.58 to 2.1 µM.

For `CC/C=C/[C@@H]1CC[C@]2(C[C@H]3CC[C@H]4[C@@H](C(=O)OC(CC)CCCCCCCCCCCCC[C@@H]5O[C@](O)(CCN)[C@H](O)N(CCCN)C5=O)[C@@]5(CCC[C@H](C)O5)NC(=[N+]34)N2)O1` (stereo partly drawn), which inhibition [12] is on record?
Its inhibition is 50%.

Which inhibition [10] does the source give for `NCCCCN(CCCN)C(=O)CCCCCCCCCCCCCCCc1ccc2c(c1)[C@@H]1C[C@]3(CCCCO3)NC3=[N+]1[C@@H]2C[C@@]1(CCCCO1)N3.[Cl-]` here?
Its inhibition is 64%.

What about the IC50 (K562 [13]) of the same molecule?
Its IC50 is 0.52 µg/mL.

For `CC[C@H]1C=CCC[C@@]2(C[C@@H]3CC[C@@H]4[C@H](C(=O)OCCCCCCCCCCCCCCCC(=O)N(CCCN)C[C@@H](O)CCN)[C@]5(CCC[C@@H](C)O5)NC(=N2)N34)O1`, which EC50 [3] is on record?
The EC50 was 0.04 µM.

And the EC90 [3]?
The EC90 was 0.12 µM.

Which IC50 (HeLa) does the source give for `CC/C=C/[C@H]1CC[C@@]2(C[C@@H]3CC[C@@H]4[C@H](C(=O)OCCCCCCCCCCCCCCCC(=O)N(CCCN)CCCCN)[C@]5(CCC[C@@H](C)O5)N=C(N2)N34)O1` here?
Its IC50 is 0.58 to 2.1 µM.

Which IC50 [14] does the source give for `NCCCCN(CCCN)C(=O)CCCCCCCCCCCCCCC(=O)O[C@H]1C[C@H]2C[C@@]3(CCCCO3)NC3=[N+]2[C@@H]1C[C@@]1(CCCCCO1)N3` here?
Its IC50 is 1 µM.

With `NCCCCN(CCCN)C(=O)CCCCCCCCCCCCCCC(=O)O[C@H]1C[C@H]2C[C@@]3(CCCCCO3)NC3=[N+]2[C@H]1C[C@]1(CCCCO1)N3` as the molecule, how does the IC50 [14] read?
The IC50 was 3 µM.
